# In US7335635B2, “14-3-3 binding molecules as sensitizers for anticancer therapies” (Emory University, priority 2001, dated 2008):
# Columns and labels:
# caspase 3 = test: Caspase 3 activity in cell lysates (pNA release from Ac-DEVD-pNA); type: cell-based; conditions: FIG. 10a
# Procedure: Cos-7 cells were lysed 12 hours after transfection with various amounts of DNA coding for EYFP-difopein. Equal amounts of lysates were assayed for the ability to liberate p-nitroaniline (pNA) from the caspase 3 substrate Ac-DEVD-pNA. […] In another study, Cos-7 cells were assayed as in FIG. 5, except that they were treated with 50 μM of the pan-caspase inhibitor zVAD-fink or vehicle immediately prior to transfection (FIG. 10b).
# COS-7 cells [1] = test: Cisplatin-induced cell death with R18 expression, viability assay; type: cell-based; conditions: myc-tagged R18, cisplatin added 12 hours after transfection, read about 36 hours later; FIG. 11a
# Procedure: (§1) Inhibition of 14-3-3/ligand interactions may facilitate apoptotic cell death induced by cytotoxic agents. To test this possibility, the effects of expression of R18 and difopein on cisplatin-induced cell death was examined (FIG. 11). In FIG. 11a, Cos-7 cells were transfected with a lacZ marker gene along with myc-tagged R18 DNA (amount used shown as the fraction of total DNA). 12 hours after transfection, the indicated concentrations of cisplatin were added. Approximately 36 hours later the viability of the cells was determined as in FIG. 3 above. In FIG. 11b, HeLa cervical cancer cells were transfected with EYFP or EYFP-difopein as indicated. 24 hours later, 50 μM cisplatin or vehicle was added. After 24 hours of cisplatin treatment, the cells were assayed as in 2 above.
# COS-7 cells [2] = test: DNA content (sub G0) by propidium iodide flow cytometry; type: cell-based; conditions: for cell death (fraction of cells with sub G0 DNA content): 24 hours after transfection, FIG. 5
# Procedure: The two acidic residues of R18 (Asp and Glu) which are involved in coordinating the basic cluster of 14-3-3 were changed to lysine. This peptide is not expected to bind 14-3-3, but it could retain interaction with other cellular partners if they do exist. Cos-7 cells were cotransfected with a farnesylated (EGFP[)] marker along with EYFP, EYFP-R18, or EYFP-R18 (D12K,E14K). After 24 hours, cells were fixed in ethanol and DNA was stained with propidium iodide. EGFP and PI signal intensities were measured on a FACScan flow cytometer (Becton Dickinson), and transfected cells were placed in various phases of the cell cycle based on their DNA content.
# In yet another assay, (FIG. 8c) Cos-7 cells were transfected with EYFP or EYFP-difopein as indicated, and cell death was determined as in FIG. 5. Internucleosomal DNA cleavage, which is a commonly used marker of apoptosis, produces small fragments that can diffuse out of cells during ethanol fixation resulting in decreased signals being seen on staining for DNA (Sub-G0 DNA content). Therefore, the appearance of cell containing sub G0 levels of DNA indicates apoptotic cell death.
# COS-7 cells [3] = test: Annexin V phenotype of R18 induced cell death; type: cell-based; conditions: data not shown
# 14-3-3ζ dimer = molecular target: T1, 14-3-3ζ dimer (Bos taurus, UniProt P63103); test: R18-Sepharose bead competition with Bad derived phosphopeptides for 14-3-3 binding; conditions: 100 nM 14-3-3ζ dimer; FIG. 2
# T1 sequence (P63103 1-245): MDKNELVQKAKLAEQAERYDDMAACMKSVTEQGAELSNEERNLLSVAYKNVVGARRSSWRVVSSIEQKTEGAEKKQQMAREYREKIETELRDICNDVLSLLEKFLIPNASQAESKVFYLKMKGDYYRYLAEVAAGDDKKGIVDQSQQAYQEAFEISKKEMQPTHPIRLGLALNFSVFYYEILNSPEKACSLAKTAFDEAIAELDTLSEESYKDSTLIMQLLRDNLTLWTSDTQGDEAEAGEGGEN
# Procedure: R18 was covalently coupled to Sepharose beads. The beads were then incubated with 100 nM 14-3-3ζ dimer along with the indicated concentrations of synthetic phosphopeptides derived from Bad. pS136 contains a 14-3-3 binding site, while pS112 is a similar peptide incapable of binding 14-3-3. Unbound 14-3-3 was washed away from the beads and the remaining proteins were visualized by SDS-PAGE and sliver staining. […] See also, Masters et al. (2001) Molecular Pharmacology 60: 1325-1331, herein incorporated by reference.
# 14-3-3 proteins = conditions: cited from earlier work
# 14-3-3ζ/ASK1 = molecular target: T2, 14-3-3ζ/ASK1 (Bos taurus, UniProt P63103); test: Peptide inhibition of [35S]-ASK1 binding to immobilized His-14-3-3ζ; conditions: FIG. 1
# T2 sequence (P63103 1-245): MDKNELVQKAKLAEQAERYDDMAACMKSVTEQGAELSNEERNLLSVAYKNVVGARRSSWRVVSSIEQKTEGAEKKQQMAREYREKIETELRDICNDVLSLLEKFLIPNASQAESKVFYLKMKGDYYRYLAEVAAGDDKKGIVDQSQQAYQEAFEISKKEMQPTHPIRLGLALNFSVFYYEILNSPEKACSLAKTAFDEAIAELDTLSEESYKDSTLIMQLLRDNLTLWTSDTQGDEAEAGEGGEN
# Procedure: To determine the effectiveness of various 14-3-3 antagonist, including R18, S-Raf259, and pS-Raf-259, the peptide antagonists were preincubated with immobilized His-14-3-3ζ before adding [^35S]-labeled ASK1. After washing, 14-3-3-bound ASK1 was quantified by PhosphorImager. The percentage of ASK1 bound to 14-3-3 relative to peptide-free samples is plotted against increasing concentration of the test peptides (FIG. 1).
# COS-7 cells [4] = test: Attachment based viability assay (lacZ marker, β-gal activity); type: cell-based; conditions: expression from transfected vector, FIG. 4, FIG. 8a
# Procedure: R18 is placed under the control of the CMV promoter in a mammalian expression vector pCR3.1 (pSCM110). Cells expressing the control pcDNA3 along with a lacZ marker gave high β-gal activity that was set as 100% survival. […] The R18 effect was dose-dependent because increased R18 expression was correlated with decreased cell viability.
# In FIG. 8a, Cos-7 cells were co-transfected with myc-tagged difopein or a control vector along with a lacZ reported gene. After approximately 48 hours floating cells were gently washed away and attached cells were lysed and assayed for β-galactosidase.
# 14-3-3 = conditions: phosphorylation-independent interaction; cited from earlier work
# 14-3-3ζ/Raf-1 = molecular target: T3, 14-3-3ζ/Raf-1 (Bos taurus, UniProt P63103); test: Co-immunoprecipitation of FLAG-14-3-3ζ and endogenous Raf-1 in transfected HEK293 cells; type: cell-based; conditions: FIG. 3
# T3 sequence (P63103 1-245): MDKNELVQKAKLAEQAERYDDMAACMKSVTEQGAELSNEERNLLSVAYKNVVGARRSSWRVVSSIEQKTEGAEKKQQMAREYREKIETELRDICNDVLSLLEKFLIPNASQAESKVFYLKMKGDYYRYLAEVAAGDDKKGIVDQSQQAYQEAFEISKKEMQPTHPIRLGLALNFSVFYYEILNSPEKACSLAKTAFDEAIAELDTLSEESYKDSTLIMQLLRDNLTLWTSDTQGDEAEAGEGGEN
# Excerpt: Difopein is a 62 amino acid polypeptide having 14-3-3 antagonist activity. The amino acid sequence of difopein is shown in SEQ ID NO:2 and comprises two R18 monomers (amino acids 6-25 and 37-56 of SEQ ID NO:2) separated by non-repeat linker sequences (amino acids 26-36 of SEQ ID NO:2). […] Specifically, HEK293 cells were transfected with DNA coding for FLAG-tagged 14-3-3ζ and either EYFP or EYFP-difopein as indicated. 14-3-3 was immunoprecipitated using anti-FLAG (M2; Sigma Chemical Co.). In the presence of EYFP, 14-3-3ζ was able to co-precipitate endogenous Raf-1. […] See also, Masters et al. (2001) Journal of Biological Chemistry 276: 45193-45200, herein incorporated by reference.
# [5] = test system: HeLa cervical cancer cells; test: Cisplatin-induced cell death with EYFP-difopein expression; type: cell-based; conditions: 50 μM cisplatin for 24 hours, FIG. 11b
# Procedure: as §1
# COS-7 cells [6] = test: Viability by microscopic examination of morphology of X-gal stained transfected cells; type: cell-based; conditions: about 24 hours post transfection; FIG. 8b
# Procedure: In another assay, Cos-7 cells were cotransfected with a lacZ marker in addition to any EYFP-difopein fusion, EYFP alone, or empty vector. Approximately 24 hours post transfection, cells were fixed and transfected cells were identified by staining with X-gal. Viability of the transfected cells was determined by microscopic examination of cell morphology: live cells were flat, while dead cells were rounded up.
molecule,measurement,setting,value
Ac-DEVD-CHO [reference compound],block of EYFP-difopein induced pNA release,caspase 3; Cos-7 lysates,completely blocked
PHCVPRDLSWLDLEANMCLP [R18],enhancement of cisplatin-induced cell death,COS-7 cells [1],enhance the ability of an antineoplastic drug to kill cells
same,cell death (fraction of cells with sub G0 DNA content),COS-7 cells [2],increase in the fraction of cells containing less than normal amounts of DNA
same,annexin V phenotype,COS-7 cells [3],annexin V-positive phenotype
same,competition with Bad derived peptide for 14-3-3 binding,14-3-3ζ dimer,competes with a Bad derived peptide for 14-3-3 binding
same,specificity for 14-3-3 proteins,14-3-3 proteins,high specificity
same,Kd,"14-3-3 proteins; different isoforms of 14-3-3, similar affinity",80 nM
same,inhibitory effect on 14-3-3ζ/ASK1 compared with pS-Raf-259,14-3-3ζ/ASK1,stronger inhibitory affect
same,inhibition of the interaction of 14-3-3ζ with ASK1,14-3-3ζ/ASK1; peptide preincubated with immobilized His-14-3-3ζ,potent inhibitory affect
same,cell viability (β-gal activity),COS-7 cells [4],drastically decreased the population of viable cells
"Pseudomonas aeruginosa exoenzyme S: exoenzyme S from Pseudomonas aeruginosa, a phosphorylation-independent 14-3-3 ligand",affinity for the amphipathic groove of 14-3-3,14-3-3,high affinity
"R18 (D12K, E14K): R18 with the two acidic residues (Asp and Glu) that coordinate the basic cluster of 14-3-3 changed to lysine (PHCVPRDLSWLKLKANMCLP; left off: large carriers)",cell death (fraction of cells with sub G0 DNA content),COS-7 cells [2],unable to induce cell death
"difopein: 62 amino acid polypeptide comprising two R18 monomers separated by a non-repeat linker sequence (protein, difopein polypeptide sequence) SADGAPHCVPRDLSWLDLEANMCLPGAAGLDSADGAPHCVPRDLSWLDLEANMCLPGAAGLE",binding to 14-3-3 in vivo,14-3-3ζ/Raf-1,can bind 14-3-3 in vivo
same,enhancement of cisplatin-induced cell death,[5],enhance the ability of an antineoplastic drug to kill cells
same,cell death compared with monomeric R18,"COS-7 cells [2]; EYFP-tagged constructs, FIG. 7",dramatically enhanced the cell death
same,"effect on the cell cycle (DNA content distribution, sub G0 cells excluded)","COS-7 cells [2]; FIG. 8c, not shown",does not disrupt the cell cycle
same,sensitivity of induced cell death to constitutively active Akt,"COS-7 cells [2]; co-expression of constitutively active Akt, FIG. 9",relatively insensitive to Akt expression
same,cell viability (β-gal activity),COS-7 cells [4],decreased β-gal activity
"EYFP-difopein: EYFP-difopein fusion expressed from transfected DNA (protein, left off: large carriers, EYFP-difopein fusion expressed from transfected DNA) SADGAPHCVPRDLSWLDLEANMCLPGAAGLDSADGAPHCVPRDLSWLDLEANMCLPGAAGLE",co-precipitation of endogenous Raf-1 with 14-3-3ζ,14-3-3ζ/Raf-1; anti-FLAG immunoprecipitation,blocked co-precipitation of Raf-1
same,pNA release from caspase 3 substrate Ac-DEVD-pNA,caspase 3; Cos-7 lysates 12 hours after transfection,dose dependent increase in pNA release
same,reduction of the live cell population,COS-7 cells [6],about one-half
